Measurements published in patent US11884710B2, “Peptide compounds and methods of use in wound healing” (priority 2013, dated 2024).
Square brackets hold non-standard residues; d marks the D form. Ends that are not written are not given here. PEG2 = NCCOCCOCCC(=O)O

Columns and labels:
[1] = test system: Pseudomonas aeruginosa ATCC 27853; experiment: In vitro bactericidal assay, P. aeruginosa ATCC 27853 (FIGS. 12-14); format: cell-based; conditions: for bactericidal effectiveness concluded by extrapolation: even at substantially lower concentrations of the peptide
Experimental: Each of the test peptides was used at 25, 12.5 6.25, and 3.12 μM. The gentamicin was used at 4 μg/ml. 1×10^6/ml Pseudomonas aeruginosa ATCC® 27853™ (American Type Culture Collection, Manassas, Va.) were incubated with the peptides, negative buffer control (tryptone saline), and positive control gentamicin for 180 minutes at pH 7.2. 50 μl aliquots were plated out on agar plates and incubated overnight. Colony forming units were counted after overnight incubation and CFU/ml calculated.
Each of the test peptides was used at 25, 12.5, 6.25, and 3.12 μM. The gentamicin was used at 4 μg/ml. 1×10^6/ml Pseudomonas aeruginosa ATCC® 27853™ (American Type Culture Collection, Manassas, Va.) were incubated with the peptides, negative buffer control (tryptone saline), and positive control gentamicin for 180 minutes at pH 5.5. 50 μl aliquots were plated out on agar plates and incubated overnight. Colony forming units were counted after overnight incubation and CFU/ml calculated.
FIG. 14 is a comparison of bactericidal activity of CAP37 peptides 120-146WR (SEQ ID NO:30), 120-146WH (SEQ ID NO:31), 120-146QR (SEQ ID NO:28), 120-146QH (SEQ ID NO:29), 120-146QR-5RMP (SEQ ID NO:32), and 120-146QH-5RMP (SEQ ID NO:33) for Pseudomonas aeruginosa ATCC® 27853™ (American Type Culture Collection, Manassas, Va.). 1×10^6/ml Pseudomonas aeruginosa ATCC® 27853™ were incubated with the peptides at 150, 75, and 37.5 μg/ml and negative buffer control (tryptone saline) for 180 minutes at pH 5.5. 50 μl aliquots were plated out on agar plates and incubated overnight. Colony forming units were counted after overnight incubation and CFU/ml calculated.
(§1) For FIGS. 10-13, in vitro bactericidal assays were performed using a starting inoculum of 1×10^6 CFU/ml of the bacterial suspension. The CFU remaining at the end of the 60-180 minute incubation was determined, and the data was plotted as log reduction in CFU/ml.
(§2) In particular, each of the test peptides (CAP37 peptides 120-146WR, 120-146WH, and 95-122 (SEQ ID NOS:30, 31, and 26, respectively)) was used at 25, 12.5, 6.25, and 3.12 μM. Gentamicin was used at 4 μg/ml. 1×10^6/ml Acinetobacter baumannii ATCC® BAA-747™ or Pseudomonas aeruginosa ATCC® 27853™ (American Type Culture Collection, Manassas, Va.) were incubated with the peptides, negative buffer control (tryptone saline), and positive control gentamicin at pH 5.5 or 7.2. A 60 minute incubation was used for Acinetobacter baumannii ATCC® BAA-747™, while a 180 minute incubation was used for Pseudomonas aeruginosa ATCC® 27853™. 50 μl aliquots were plated out on agar plates and incubated overnight. Colony forming units were counted after overnight incubation and CFU/ml calculated.
For FIG. 14, 1×10^6/ml Pseudomonas aeruginosa ATCC® 27853™ were incubated with each of the test peptides (CAP37 peptides 120-146WR, 120-146WH, 120-146QR, 120-146QH, 120-146QR-5RMP, and 120-146QH-5RMP (SEQ ID NOS:30, 31, 28, 29, 32, and 33, respectively)) at 150, 75, and 37.5 μg/ml, or negative buffer control (tryptone saline), for 180 minutes at pH 5.5. 50 μl aliquots were plated out on agar plates and incubated overnight. Colony forming units were counted after overnight incubation and CFU/ml calculated.

[2] = test system: full thickness excisional wounds; experiment: Swine full thickness excisional dermal wound model; format: in vivo; conditions: for Mean Wound Healing (%): topical 3 mg/ml, 0.20 ml daily
Experimental: In this Example, peptide compounds of the presently disclosed inventive concepts were evaluated as to their activity on the dermal wound healing process in a clinically relevant swine full thickness excisional wound model. Three different peptide formulations (Group B, Peptide 95-122 (SEQ ID NO:26); Group C, Peptide 120-146WH (SEQ ID NO:31); and Group D, Peptide 120-146QH-5RMP (SEQ ID NO:33)) were each evaluated at the same concentration (3 mg/ml). Sterile saline served as the control (Group A).
(§3) Full thickness excisional wounds were induced on the dorsum of swine (N=3) using a 1.0 cm biopsy punch. Treatments were administered (0.20 ml) to each wound (N=6 wounds per group), and the wounds were dressed with standard occlusive dressing ([…]™, 3M Corporation, St. Paul, Minn.). Treatments were reapplied daily and dressings changed. Clinical wound healing observations and wound area (2 mm) measurements were performed on days 0, 3, 5, 7, 10, and 14 post-wounding. Wound area (2 mm) data were expressed as percentage (%) of wound healing. Animals were terminated on day 14 with wounds harvested and processed for histological evaluation. […] All peptide formulation treatment groups healed faster with greater rate of closure and re-epithelialization over time, as compared to the saline control (Group A).

[3] = test system: full thickness excisional wounds; experiment: Histopathology of swine dermal wounds; format: in vivo; parameters: Inflammation, mean histopathology score / Angiogenesis, mean histopathology score / Granulation, mean histopathology score / Epithelization, mean histopathology score: scale not given here
Experimental: The characteristics that were measured are required to indicate features of a well-healed wound. Inflammation should be low and re-epithelialization high.
as §3
The histology correlated with the clinical observations. […] There were minimal differences in the amount or character of granulation tissue, inflammation, and angiogenesis. All the wounds were well filled and vascularized.

[4] = test system: human corneal epithelial cell (HCEC); experiment: HCEC chemotaxis, modified Boyden chemotaxis chamber; format: cell-based; conditions: for HCEC migration compared with the whole CAP37 protein, in words: 120-146QH at 10^−6 M and 10^−8 M, 120-146QR concentration not stated; for migration of HCECs vs buffer control, in words: 3 hours at 37° C.
Experimental: The effect of buffer control (0.1% BSA in Gey's buffer), heparin binding-epidermal growth factor (HB-EGF, 50 ng/ml), recombinant CAP37 (rCAP37, 250 ng/ml), 120-146QH (10^−12M, 10^−10 M, 10^−8 M, 10^−6M, and 10^−4M,) and 120-146QR (10^−10M, 10^−8M, 10^−6M, and 10^−4M) on HCEC chemotaxis was determined by the modified Boyden chemotaxis chamber method. HCEC chemotaxis was measured in response to HB-EGF, rCAP37, and peptides 120-146QH (SEQ ID NO:29) and 120-146QR (SEQ ID NO:28) after incubation for 3 hours at 37° C. Chemotaxis is expressed as a percent migration. The buffer control (no chemoattractant) is arbitrarily assigned the value of 100% migration. Data are expressed as means±SEM and are calculated from 6 observations for each test point. **P<0.01 by Wilcoxon signed-rank test as compared to controls.
Chemotaxis: Chemotaxis assays were performed using the modified Boyden chemotaxis chamber assay. Peptide 120-146QH was used at 10^−4 M, 10^−6 M, 10^−8 M, 10^−10 M, and 10^−12 M, and peptide 120-146QR was used at 10^−4 M, 10^−6 M, 10^−8M, and 10^−10M.

[5] = test system: Acinetobacter baumannii ATCC BAA-747; experiment: In vitro bactericidal assay, A. baumannii ATCC BAA-747 (FIGS. 10-11); format: cell-based; conditions: 60 minutes, peptides 3.12-25 μM, gentamicin 4 μg/ml
Experimental: Each of the test peptides was used at 25, 12.5 6.25 and 3.12 μM. The gentamicin was used at 4 μg/ml. 1×10^6/ml Acinetobacter baumannii ATCC® BAA-747™ (American Type Culture Collection, Manassas, Va.) were incubated with the peptides, negative buffer control (tryptone saline), and positive control gentamicin for 60 minutes at pH 5.5. 50 μl aliquots were plated out on agar plates and incubated overnight. Colony forming units were counted after overnight incubation and CFU/ml calculated.
Each of the test peptides was used at 25, 12.5 6.25 and 3.12 μM. The gentamicin was used at 4 μg/ml. 1×10^6/ml Acinetobacter baumannii ATCC® BAA-747™ (American Type Culture Collection, Manassas, Va.) were incubated with the peptides, negative buffer control (tryptone saline), and positive control gentamicin for 60 minutes at pH 7.2. 50 μl aliquots were plated out on agar plates and incubated overnight. Colony forming units were counted after overnight incubation and CFU/ml calculated.
as §1, §2

[6] = wounds harvested on day 14, 3 mg/ml

“(AEEP)-(AEEP)-RRRRGTRCQVAGWGSQHSGGRLSRFPRFVNVR ([PEG2][PEG2]RRRRGTRCQVAGWGSQHSGGRLSRFPRFVNVR) [120-146QH-5RMP]” was tested, and the “reduction in CFU” value ([1]; FIG. 14, pH 5.5, 180 minutes, even at the lower concentration (75 μg/ml)) was roughly 6 log, the “Mean Wound Healing (%)” value ([2]; Day 0) was 0.0% and the “Mean Wound Healing (%)” value ([2]; Day 3) was 22.5%. The “Mean Wound Healing (%)” value ([2]; Day 5) was 34.1%, the “Mean Wound Healing (%)” value ([2]; Day 7) was 64.1% and the “Mean Wound Healing (%)” value ([2]; Day 10) was 93.7%. For the same substance, the “Mean Wound Healing (%)” value ([2]; Day 14) was 98.0%, the “percentage of wound healing vs saline control, in words” value ([2]; days 10 and 14 post-wounding, 3 mg/ml) was “significant (p<0.05) increase in the percentage of wound healing” and the “epidermal resurfacing and maturation vs saline control, in words” value ([3]; day 14 post-wounding) was “greater extent of epidermal resurfacing and maturation of the epidermis”. For the same substance, the “Angiogenesis, mean histopathology score” value [3, 6] was 1.3, the “Epithelization, mean histopathology score” value [3, 6] was 4.0 and the “Granulation, mean histopathology score” value [3, 6] was 4.0. For the same substance, the “Inflammation, mean histopathology score” value [3, 6] was 0.5.
For “(AEEP)-(AEEP)-RRRRGTRCQVAGWGSWHSGGRLSRFPRFVNVR ([PEG2][PEG2]RRRRGTRCQVAGWGSWHSGGRLSRFPRFVNVR) [120-146WH-5RMP]”, the predicted killing capabilities [1] was “superior killing capabilities” and the “bactericidal effectiveness concluded by extrapolation” value [1] was “highly effective”.
For “(AEEP)-(AEEP)-RRRRGTRCQVAGWGSWRSGGRLSRFPRFVNVR ([PEG2][PEG2]RRRRGTRCQVAGWGSWRSGGRLSRFPRFVNVR) [120-146WR-5RMP]”, the predicted killing capabilities [1] was “superior killing capabilities” and the “bactericidal effectiveness concluded by extrapolation” value [1] was “highly effective”.
“GTRCQVAGWGSQHSGGRLSRFPRFVNV (derivative of peptide of Homo sapiens CAP37 protein) [Peptide 120-146QH]” was tested, and the “activity in in vitro killing assays, in words” value ([1]; FIG. 14, pH 5.5, 180 minutes) was “relatively inactive”, the “HCEC migration compared with the whole CAP37 protein, in words” value [4] was “comparable to the migration obtained with the whole CAP37 protein” and the “migration of HCECs vs buffer control, in words” value ([4]; peptide at 10^−4 M, 10^−6 M, 10^−8 M, and 10^−10 M) was “significantly increase migration of HCECs”.
With “GTRCQVAGWGSQRSGGRLSRFPRFVNV (listed as Homo sapiens) [Peptide 120-146QR]” the “activity in in vitro killing assays, in words” value ([1]; FIG. 14, pH 5.5, 180 minutes) was “relatively inactive”, the “HCEC migration compared with the whole CAP37 protein, in words” value [4] was “less than the migration obtained with the whole protein” and the “migration of HCECs vs buffer control, in words” value ([4]; peptide at 10^−6 M and 10^−8 M) was “significantly increase migration of HCECs”.
With gentamicin [reference compound] the “bactericidal activity, in words” value ([1]; 120-146WR at 25 μM, gentamicin 4 μg/ml) was “highly active”, the “reduction of CFU/ml” value ([1]; pH 5.5, 180 minutes, gentamicin 4 μg/ml) was 2 log and the “bactericidal activity, in words” value ([1]; pH 5.5, 180 minutes, peptides 3.12-25 μM, gentamicin 4 μg/ml) was “not as effective as the peptides”. The “bactericidal activity, in words” value ([5]; pH 5.5) was “unable to kill the bacteria” and the “bactericidal activity, in words” value ([5]; pH 7.2) was “active against the bacteria”.
